Reference: EP1946758A1, “Treatment of acute myeloid leukemia” (PIERRE FABRE MEDICAMENT, priority 2007, dated 2008)

What was measured:
[1] = Stability in water (D2O solution followed by proton NMR); type: physicochemical; details: room temperature; for change in the NMR spectrum: 3 mg/ml
Experimental: Sodium triptolide succinate was dissolved in D2O, and the aqueous solution was stored at room temperature.
Stability in Water: a solution of sodium triptolide succinate in D2O can be prepared at a concentration of 3 mg/ml and stored at room temperature. The solution can be analyzed by ^1H NMR at intervals of 1, 3, 5, 15, 45, 90, 180 minutes; 1, 7, 14 days; and 1, 2, 3, and 5 months.

[2] = test system: relapsed or refractory acute myeloid leukemia; assay: Exploratory dose escalation treatment of patients with relapsed or refractory leukemias; type: in vivo
Experimental: PG490-88 Na is a 14-succinyl triptolide sodium salt of triptolide (PG490).
In this example, 29 patients with relapsed or refractory leukemias were treated. Median age was 57 years (range : 30 - 79). Sixty two percent of patients were male. Twelve dose levels from 0.150 to 13 mg/m^2/day were tested in one patient each, with an increase by 50% for each successive cohort of patients until one dose limiting toxicity (DLT) was observed. Thereafter, dose escalation was switched to a standard design using cohorts of 3 to 6 patients per dose level, with 30% dose increments.
Among all the patients, 6 […] presented with a disease refractory to standard induction chemotherapy and the others were in 1st or 2nd relapse who had failed salvage therapy for 9 of them. […]

[3] = Stability in blood serum (hydrolysis followed by TLC); type: in vitro ADME; details: rat serum, 37°C
Experimental: The stability of triptolide succinate in blood serum was determined. In this study, a solution of triptolide succinate (the free acid of the sodium triptolide succinate) in DMSO was mixed with rat serum and incubated at 37°C. The mixture was assayed periodically by thin layer chromatography (TLC) to follow the hydrolysis of the triptolide succinate over time. […] After 15 minutes, the triptolide succinate spot was gone and a new spot corresponding to triptolide had appeared (Rf =0.60). Finally, after 45 minutes, the triptolide spot had also disappeared, and only low Rf material (blood serum components and decomposition products) remained.
Stability in Blood Serum: a solution of triptolide succinate (free acid) in DMSO can be made at a concentration of 25 mg/ml, and 0.1 ml of this solution can be mixed with 0.5 ml of rat serum. The mixture was incubated at 37°C. Aliquots of the mixture should then be taken at 1, 3, 5, 15, 45 minutes and 18 hours and analyzed by thin layer chromatography (TLC). The TLC plates can be developed in 1:5 CH2Cl2/Et2O. After development, the plates can be treated with iodine vapor and examined under a UV lamp. Triptolide and triptolide succinate can be used as reference compounds (Rf =0.60, and 0.45, respectively).
After 15 minutes, the triptolide succinate spot may be gone (Rf =0.45), and a new spot corresponding to triptolide may have appeared (Rf =0.60). After 45 minutes, the triptolide spot may also disappear, and only low Rf material (blood serum components and decomposition products) may remain.

[4] = patients with relapsed or refractory leukemias
[5] = recommended dose of 5.7 mg/m^2/day

Compound: CC(C)[C@]12O[C@H]1[C@@H]1O[C@]13[C@]1(O[C@H]1C[C@H]1C4=C(CC[C@@]13C)C(=O)OC4)[C@@H]2OC(=O)CCC(=O)[O-].[Na+] [PG490-88 Na, 14-succinyl triptolide sodium salt]
- change in the NMR spectrum ([1]; after 5 months): Some decomposition
- change in the NMR spectrum ([1]; during the first three months): No appreciable change
- stability in aqueous solution (proton NMR spectra) ([1]; after five months): some decomposition
- stability in aqueous solution (proton NMR spectra) ([1]; after three months): unchanged
- cerebellar toxicity, patients ([2]; 7 mg/m^2/day (one grade 2 and two grade 4)): 3 patients
- cerebellar toxicity, patients ([2]; 8.5 mg/m^2/day (two grade 4)): 2 patients
- response ([2]; another patient, 8.5 mg/m^2/day, after 2 cycles of treatment): CRp: complete remission without full platelets recovery
- cerebellar toxicity, patients ([2]; doses > 5.7 mg/m^2/day): 5 patients
- overall response on relapsed or refractory acute myeloid leukemia ([2]; exploratory dose escalation experiments): very good response
- response ([2]; one patient, 5.7 mg/m^2/day, day 15 of the treatment, one cycle): complete remission (CR) with pancytopenia
- haematological toxicity ([2]; patient with CRp, 8.5 mg/m^2/day, after cycle 2): no haematological toxicity
- haematological toxicity ([2]; patient with CRp, 8.5 mg/m^2/day, after the first cycle): grade 4 aplasia lasting 20 days
- maximum tolerated dose (MTD) [2, 4]: 7 mg/m^2/day
- recommended dose for this regimen [2, 4]: 5.7 mg/m^2/day
- grade 3 leucopenia (related adverse event), patients [2, 5]: 1 patient
- other related adverse events [2, 5]: mild diarrhoea, nausea and vomiting
- haematological toxicity ([2]; third patient (complete remission), 8.5 mg/m^2/day, after the first cycle): moderate leucopenia (grade 1 lasting 2 days)
- haematological toxicity ([2]; third patient (complete remission), 8.5 mg/m^2/day, during the second cycle): no haematotoxicity
- response ([2]; third patient, 8.5 mg/m^2/day, after 2 cycles of treatment): complete remission

Compound: Triptolide Succinate
- time for hydrolysis in serum to release free triptolide [3]: less than an hour
- species detected by TLC ([3]; after 3 minutes): only triptolide succinate may be detected
- triptolide succinate spot (Rf =0.45) by TLC ([3]; after 15 minutes): gone
- triptolide succinate spot (Rf =0.45) by TLC ([3]; within the first 3 to 5 minutes): most of the triptolide succinate remained
